How the values were obtained:
VHL/EloB/EloC (VBC) = VHL/EloB/EloC (VBC) (Homo sapiens, UniProt P40337); experiment: SPR, immobilised His-tagged VBC; format: binding
[1] = target: VHL:GEMIN3aa41-268 (VBC with purified GEMIN3aa41-268) (Homo sapiens, UniProt P40337+Q9UHI6); experiment: SPR, immobilised GEMIN3aa41-268, pre-formed VBC:compound complex as analyte; format: binding
NanoLuc-VHL = NanoLuc-VHL (Homo sapiens, UniProt P40337); experiment: NanoBRET tracer displacement, live HEK293T cells; format: cell-based
Sequence of NanoLuc-VHL (P40337 whole entry): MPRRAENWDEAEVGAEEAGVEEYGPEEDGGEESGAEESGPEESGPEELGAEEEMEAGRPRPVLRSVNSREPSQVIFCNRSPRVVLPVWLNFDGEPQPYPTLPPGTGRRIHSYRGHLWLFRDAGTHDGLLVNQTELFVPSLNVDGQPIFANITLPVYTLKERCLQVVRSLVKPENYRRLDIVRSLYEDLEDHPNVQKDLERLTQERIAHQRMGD

Sequence of VHL:GEMIN3aa41-268 (VBC with purified GEMIN3aa41-268) (P40337 whole entry, the tested form may be a part): as the sequence (P40337 whole entry) above
Sequence of VHL:GEMIN3aa41-268 (VBC with purified GEMIN3aa41-268) (Q9UHI6 41-268): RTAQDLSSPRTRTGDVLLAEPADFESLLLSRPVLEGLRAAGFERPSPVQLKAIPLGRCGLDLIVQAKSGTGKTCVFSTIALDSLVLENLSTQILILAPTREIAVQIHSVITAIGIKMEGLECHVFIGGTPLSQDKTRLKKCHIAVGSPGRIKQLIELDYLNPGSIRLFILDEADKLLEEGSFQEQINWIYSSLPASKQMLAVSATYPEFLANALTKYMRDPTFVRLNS
Sequence of VHL:GEMIN3aa41-268 (VBC with purified GEMIN3aa41-268) (Q15369 whole entry, further chain, the tested form may be a part): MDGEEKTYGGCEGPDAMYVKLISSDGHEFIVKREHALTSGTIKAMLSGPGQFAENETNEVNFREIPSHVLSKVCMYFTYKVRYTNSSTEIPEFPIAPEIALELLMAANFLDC
Sequence of VHL:GEMIN3aa41-268 (VBC with purified GEMIN3aa41-268) (Q15370 whole entry, further chain, the tested form may be a part): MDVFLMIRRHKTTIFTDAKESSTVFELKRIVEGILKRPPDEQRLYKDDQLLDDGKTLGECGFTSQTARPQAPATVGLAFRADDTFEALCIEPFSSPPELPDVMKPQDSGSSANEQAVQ
Sequence of VHL/EloB/EloC (VBC) (Q15369 whole entry, the tested form may be a part): as the sequence (Q15369 whole entry, further chain, the tested form may be a part) above
Sequence of VHL/EloB/EloC (VBC) (Q15370 whole entry, further chain, the tested form may be a part): as the sequence (Q15370 whole entry, further chain, the tested form may be a part) above
Sequence of VHL/EloB/EloC (VBC) (P40337 whole entry, the tested form may be a part): as the sequence (P40337 whole entry) above

Compound | Kd (VHL/EloB/EloC (VBC)) | Kd [1] | IC50 (NanoLuc-VHL)
CC(C)(C)[C@H](NC(=O)c1cnn2c1OCCC2)C(=O)N1C[C@H](O)C[C@H]1C(=O)NCc1ccc(-c2ccccc2)cc1 [compound 6, N-((S)-1-((2S,4R)-2-(([1,1’-biphenyl]-4-ylmethyl)carbamoyl)-4-hydroxypyrrolidin-1-yl)-3,3-dimethyl-1-oxobutan-2-yl)-6,7-dihydro-5H-pyrazolo[5,1-b][1,3]oxazine-3-carboxamide] | 170 nM |  | 
CC(C)(C)[C@H](NC(=O)c1cnn2c1OCCC2)C(=O)N1C[C@H](O)C[C@H]1C(=O)NCc1ccc(-c2ccc(Cl)cc2)cc1 [compound 4, N-((S)-1-((2S,4R)-2-(((4’-chloro-[1,1’-biphenyl]-4-yl)methyl)carbamoyl)-4-hydroxypyrrolidin-1-yl)-3,3-dimethyl-1-oxobutan-2-yl)-6,7-dihydro-5H-pyrazolo[5,1-b][1,3]oxazine-3-carboxamide] | 200 nM | 487 nM | 
CC(C)(C)[C@H](NC(=O)c1cnn2c1OCCC2)C(=O)N1C[C@H](O)C[C@H]1C(=O)NCc1ccc(-c2ccccc2Cl)cc1 [compound 5, N-((S)-1-((2S,4R)-2-(((2’-chloro-[1,1’-biphenyl]-4-yl)methyl)carbamoyl)-4-hydroxypyrrolidin-1-yl)-3,3-dimethyl-1-oxobutan-2-yl)-6,7-dihydro-5H-pyrazolo[5,1-b][1,3]oxazine-3-carboxamide] | 74.3 nM |  | 
CC(C)(C)[C@H](NC(=O)c1cnn2c1OCCC2)C(=O)N1C[C@H](O)C[C@H]1C(=O)NCc1ccc(-c2ccc(Cl)cc2Cl)cc1 [compound 1, N-((S)-1-((2S,4R)-2-(((2’,4’-dichloro-[1,1’-biphenyl]-4-yl)methyl)carbamoyl)-4-hydroxypyrrolidin-1-yl)-3,3-dimethyl-1-oxobutan-2-yl)-6,7-dihydro-5H-pyrazolo[5,1-b] [1,3] oxazine-3-carboxamide] | 217 nM | 69 nM | 870 nM
CC(C)(C)[C@H](NC(=O)c1cnn2c1CCCC2)C(=O)N1C[C@H](O)C[C@H]1C(=O)NCc1ccc(-c2ccc(Cl)cc2Cl)cc1 [compound 3, N-((S)-1-((2S,4R)-2-(((2’,4’-dichloro-[1,1’-biphenyl]-4-yl)methyl)carbamoyl)-4-hydroxypyrrolidin-1-yl)-3,3-dimethyl-1-oxobutan-2-yl)-4,5,6,7-tetrahydropyrazolo[1,5-a]pyridine-3-carboxamide] | 557 nM | 73 nM | 

Source: publication doi:10.1101/2025.03.19.644003v1 (biorxiv, 2025)
